The values that follow come from US20120225062A1 (priority 2011, published 2012).

Structures are written as SMILES.

In assay [1] the test system is KMS11 (human myeloma cell line). In words: Cell Proliferation Assay (CellTiter-Glo, 3 days). In kind it is cell-based. Conditions: KMS-11, 72 h, KMS11-luc cells. A digest of the protocol:
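EC50 from CellTiter-Glo luminescence after 3-day, 37° C compound treatment of KMS11 cells seeded at 2000 per well in IMDM plus 10% FBS.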

Assay [2] deals with Pim 1 (Homo sapiens, UniProt P11309). In words: Pim 1 AlphaScreen assay (high ATP). Background: Bead proximity is the source of the signal in Alpha formats.
Pim 1, sequence (P11309 whole entry): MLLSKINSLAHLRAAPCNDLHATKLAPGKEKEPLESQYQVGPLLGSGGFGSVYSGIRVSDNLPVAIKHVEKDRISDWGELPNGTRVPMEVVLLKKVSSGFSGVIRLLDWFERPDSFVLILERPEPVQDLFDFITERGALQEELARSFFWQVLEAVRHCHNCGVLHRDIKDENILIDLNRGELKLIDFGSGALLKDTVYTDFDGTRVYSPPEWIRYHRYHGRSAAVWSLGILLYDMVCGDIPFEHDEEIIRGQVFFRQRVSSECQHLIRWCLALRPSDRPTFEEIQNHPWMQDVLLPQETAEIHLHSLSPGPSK
Assay [3] deals with Pim 2 (Homo sapiens, UniProt Q9P1W9). The assay is described as follows: Pim 2 AlphaScreen assay (high ATP).
Pim 2, sequence (Q9P1W9 whole entry): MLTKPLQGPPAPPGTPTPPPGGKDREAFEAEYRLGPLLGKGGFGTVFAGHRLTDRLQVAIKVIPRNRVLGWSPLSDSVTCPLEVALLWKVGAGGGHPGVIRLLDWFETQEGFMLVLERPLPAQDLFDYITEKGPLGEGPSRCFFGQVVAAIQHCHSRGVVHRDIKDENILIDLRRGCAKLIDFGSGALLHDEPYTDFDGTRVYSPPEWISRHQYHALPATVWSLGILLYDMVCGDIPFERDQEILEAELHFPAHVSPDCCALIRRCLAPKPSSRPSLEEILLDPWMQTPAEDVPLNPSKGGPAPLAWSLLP
Assay [4] has as its target Pim 3 (Homo sapiens, UniProt Q86V86). The assay is described as follows: Pim 3 AlphaScreen assay (high ATP).
Protocol: The activity of Pim 1, Pim 2, & Pim 3 is measured using a homogeneous bead based system quantifying the amount of phosphorylated peptide substrate resulting from kinase-catalyzed phosphoryl transfer to a peptide substrate. Compounds to be tested are dissolved in 100% DMSO and directly distributed to a white 384-well plate at 0.25 μl per well. […] This is followed by the addition of 5 μl/well of Pim 1, Pim 2 or Pim 3 kinase in assay buffer (concentrations described below). Final assay concentrations (described below) are in 2.5% DMSO. The reactions are performed for ˜2 hours, then stopped by the addition of 10 μl of 0.75 μg/ml anti-phospho Ser/Thr antibody (Cell Signaling), 10 μg/ml Protein A AlphaScreen beads (Perkin Elmer), and 10 μg/ml streptavidin coated AlphaScreen beads in stop/detection buffer (50 mM EDTA, 95 mM Tris, pH=7.5, 0.01% Tween-20). The stopped reactions are incubated overnight in the dark. The phosphorylated peptide is detected via an oxygen anion initiated chemiluminescence/fluorescence cascade using the Envision plate reader (Perkin Elmer).

The term EC50 denotes the concentration that produces a half-maximal response. A high value points to lower potency in that assay. By IC50 is commonly meant the concentration that inhibits the measured activity by half. Low values mean greater potency in that assay, high ones weaker potency in that assay. Regarding `C[C@@H]1C[C@H](N)C[C@H](c2ccncc2NC(=O)c2ccc(F)c(-c3c(F)cc4c(c3F)OCC4)n2)C1` [Example 179, N-(4-((1R,3S,5S)-3-amino-5-methylcyclohexyl)pyridin-3-yl)-6-(5,7-difluoro-2,3-dihydrobenzofuran-6-yl)-5-fluoropicolinamide], the EC50 in assay [1] stood at 77 nM. For the same compound, the IC50 in assay [2] came out at 0.01 nM; in assay [3], 0.51 nM; in assay [4], 0.3 nM.

For the compound `COCCOc1cc(F)c(-c2nc(C(=O)Nc3cnccc3[C@H]3C[C@@H](N)C[C@@H](C(C)C)C3)ccc2F)c(F)c1` [Example 175, N-(4-((1R,3S,5S)-3-amino-5-isopropylcyclohexyl)pyridin-3-yl)-6-(2,6-difluoro-4-(2-methoxyethoxy)phenyl)-5-fluoropicolinamide], the EC50 in assay [1] was 176 nM. Further, the IC50 in assay [2] was 0.01 nM; in assay [3], 0.98 nM; in assay [4] it was 0.46 nM.

In assay [1], `C[C@H]1C[C@@H](c2ccncc2NC(=O)c2ccc(F)c(-c3c(F)cc(C4CCS(=O)(=O)CC4)cc3F)n2)C[C@@H](N)[C@@H]1O` [Example 203, N-(4-((1R,3R,4R,5S)-3-amino-4-hydroxy-5-methylcyclohexyl)pyridin-3-yl)-6-(4-(1,1-dioxidotetrahydro-2H-thiopyran-4-yl)-2,6-difluorophenyl)-5-fluoropicolinamide] showed an EC50 of 1490 nM. Moreover, the results for the IC50 in assay [2], in assay [3] and in assay [4] were 0.02 nM, 1.18 nM and 0.59 nM, respectively.

Compound `C[C@@H]1C[C@H](N)C[C@H](c2ccncc2NC(=O)c2ccc(F)c(-c3c(F)cc(OCC4CC4)cc3F)n2)C1` [Example 64, N-(4-((1R,3S,5S)-3-amino-5-methylcyclohexyl)pyridin-3-yl)-6-(4-(cyclopropylmethoxy)-2,6-difluorophenyl)-5-fluoropicolinamide] gave an EC50 in assay [1] of 37 nM. For the same compound, the results for the IC50 in assay [2], in assay [3] and in assay [4] were 0.01 nM, 1.96 nM and 0.51 nM, respectively.

With `C[C@@H]1C[C@H](N)C[C@H](c2ccncc2NC(=O)c2ccc(F)c(-c3c(F)cc(C4CCS(=O)(=O)CC4)cc3F)n2)C1` [Example 202, N-(4-((1R,3S,5S)-3-amino-5-methylcyclohexyl)pyridin-3-yl)-6-(4-(1,1-dioxidotetrahydro-2H-thiopyran-4-yl)-2,6-difluorophenyl)-5-fluoropicolinamide], the EC50 in assay [1] stood at 251 nM. Moreover, the figures for the IC50 in assay [2], in assay [3] and in assay [4] were 0.01 nM, 1.09 nM and 0.68 nM, respectively.

The compound `C[C@@H]1C[C@H](N)C[C@H](c2ccncc2NC(=O)c2ccc(F)c(-c3c(F)cc(C4COC4)cc3F)n2)C1` [Example 68, N-(4-((1R,3S,5S)-3-amino-5-methylcyclohexyl)pyridin-3-yl)-6-(2,6-difluoro-4-(oxetan-3-yl)phenyl)-5-fluoropicolinamide] yielded an EC50 in assay [1] of 25 nM. The results for the IC50 in assay [2], in assay [3] and in assay [4] were 0.01 nM, 1.6 nM and 1.13 nM, respectively.

In turn, `Cc1cc(F)c(-c2nc(C(=O)Nc3cnccc3N3C[C@@H](N)[C@H](O)[C@@H](C)C3)ccc2F)c(F)c1` [Example 37, N-(4-((3R,4R,5S)-3-amino-4-hydroxy-5-methylpiperidin-1-yl)pyridin-3-yl)-6-(2,6-difluoro-4-methylphenyl)-5-fluoropicolinamide] had an EC50 in assay [1] of 13 nM. For the same compound, the IC50 in assay [2] was 0.02 nM; in assay [3] it was 0.94 nM; in assay [4] it was 0.28 nM.

In assay [1], `C[C@H]1C[C@@H](c2ccncc2NC(=O)c2ccc(F)c(-c3c(F)cc(OC4CCOCC4)cc3F)n2)C[C@@H](N)[C@H]1O` [Example 140, N-(4-((1R,3R,4S,5S)-3-amino-4-hydroxy-5-methylcyclohexyl)pyridin-3-yl)-6-(2,6-difluoro-4-(tetrahydro-2H-pyran-4-yloxy)phenyl)-5-fluoropicolinamide] registered an EC50 of 863 nM. Further, the IC50 came out at 0.04 nM in assay [2], 6.05 nM in assay [3] and 1.71 nM in assay [4].

`C[C@H]1C[C@@H](c2ccncc2NC(=O)c2ccc(F)c(-c3c(F)cc(OC4CCOC4)cc3F)n2)C[C@@H](N)[C@@H]1O` (stereo in doubt) [Example 69, N-(4-((1R,3R,4R,5S)-3-amino-4-hydroxy-5-methylcyclohexyl)pyridin-3-yl)-6-(2,6-difluoro-4-((R)-tetrahydrofuran-3-yloxy)phenyl)-5-fluoropicolinamide] displayed an EC50 in assay [1] of 60 nM. For the same compound, the figures for the IC50 in assay [2], in assay [3] and in assay [4] were 0.03 nM, 2.38 nM and 0.89 nM, respectively.

As to `C[C@H]1C[C@@H](c2ccncc2NC(=O)c2ccc(F)c(-c3c(F)cc(C4(F)COC4)cc3F)n2)C[C@@H](N)[C@@H]1O` [Example 136, N-(4-((1R,3R,4R,5S)-3-amino-4-hydroxy-5-methylcyclohexyl)pyridin-3-yl)-6-(2,6-difluoro-4-(3-fluorooxetan-3-yl)phenyl)-5-fluoropicolinamide], a half-maximal response in assay [1] (EC50) required 225 nM. In addition, the IC50 stood at 0.08 nM in assay [2], 5.59 nM in assay [3] and 4.8 nM in assay [4].

`C[C@@H]1C[C@H](N)C[C@H](c2ccncc2NC(=O)c2nc(-c3c(F)cc(C4(O)CCC4)cc3F)c(F)cc2N)C1` [Example 220, 3-amino-N-(4-((1R,3S,5S)-3-amino-5-methylcyclohexyl)pyridin-3-yl)-6-(2,6-difluoro-4-(1-hydroxycyclobutyl)phenyl)-5-fluoropicolinamide] registered an EC50 in assay [1] of 8 nM. Further, the IC50 in assay [2] came out at 0.01 nM; in assay [3], 0.64 nM; in assay [4] it was 0.14 nM.

With `C=CCOc1ccc(F)c(-c2nc(C(=O)Nc3cnccc3[C@H]3C[C@@H](N)[C@H](O)[C@@H](C)C3)ccc2F)c1F` [Example 194, 6-(3-(allyloxy)-2.6-difluorophenyl)-N-(4-((1R,3R,4R,5S)-3-amino-4-hydroxy-5-methylcyclohexyl)pyridin-3-yl)-5-fluoropicolinamide], in assay [1], the EC50 turned out to be 1340 nM. The IC50 was determined as 0.05 nM in assay [2], 10.4 nM in assay [3] and 1.19 nM in assay [4].

In turn, `COC1(c2cc(F)c(-c3nc(C(=O)Nc4cnccc4[C@@H]4C[C@H](C)C[C@H](N)C4)ccc3F)c(F)c2)COC1` [Example 53, N-(4-((1R,3S,5S)-3-amino-5-methylcyclohexyl)pyridin-3-yl)-6-(2,6-difluoro-4-(3-methoxyoxetan-3-yl)phenyl)-5-fluoropicolinamide] showed an EC50 in assay [1] of 32 nM. Further, the IC50 in assay [2] worked out at 0.05 nM; in assay [3] it was 2.56 nM; in assay [4], 4.05 nM.

Take `CCOC(C)(C)c1cc(F)c(-c2nc(C(=O)Nc3cnccc3[C@@H]3C[C@H](C)C[C@H](N)C3)ccc2F)c(F)c1` [Example 145, N-(4-((1R,3S,5S)-3-amino-5-methylcyclohexyl)pyridin-3-yl)-6-(4-(2-ethoxypropan-2-yl)-2,6-difluorophenyl)-5-fluoropicolinamide]: in assay [1], the EC50 is 244 nM. The IC50 in assay [2] is 0.03 nM; in assay [3], 3.5 nM; in assay [4] it was 1.99 nM.

In assay [1], `COCCOc1cc(F)c(-c2nc(C(=O)Nc3cnccc3N3C[C@@H](N)[C@H](O)[C@@H](C)C3)ccc2F)c(F)c1` [Example 22, N-(4-((3R,4R,5S)-3-amino-4-hydroxy-5-methylpiperidin-1-yl)pyridin-3-yl)-6-(2,6-difluoro-4-(2-methoxyethoxy)phenyl)-5-fluoropicolinamide] had an EC50 of 10 nM. Also, the IC50 came to 0.03 nM in assay [2], 1.5 nM in assay [3] and 0.45 nM in assay [4].

In assay [1], `C[C@@H]1C[C@H](N)C[C@H](c2ccncc2NC(=O)c2ccc(F)c(-c3c(F)cc(COC4CCOCC4)cc3F)n2)C1` [Example 149, N-(4-((1R,3S,5S)-3-amino-5-methylcyclohexyl)pyridin-3-yl)-6-(2,6-difluoro-4-((tetrahydro-2H-pyran-4-yloxy)methyl)phenyl)-5-fluoropicolinamide] gave an EC50 of 148 nM. Further, the IC50 in assay [2] came to 0.03 nM; in assay [3] it was 2.96 nM; in assay [4], 1.72 nM.

With `Cc1cc(F)c(-c2nc(C(=O)Nc3cnccc3[C@@H]3C[C@H](C)C[C@H](N)C3)c(N)cc2F)c(F)c1` [Example 222, 3-amino-N-(4-((1R,3S,5S)-3-amino-5-methylcyclohexyl)pyridin-3-yl)-6-(2,6-difluoro-4-methylphenyl)-5-fluoropicolinamide], in assay [1], a half-maximal response (EC50) required 23 nM. Further, the IC50 in assay [2] worked out at 0.01 nM; in assay [3] it was 0.81 nM; in assay [4], 0.35 nM.

As to `C[C@@H]1C[C@H](N)C[C@H](c2ccncc2NC(=O)c2nc(-c3c(F)cc(C4(O)COC4)cc3F)c(F)cc2N)C1` [Example 221, 3-amino-N-(4-((1R,3S,5S)-3-amino-5-methylcyclohexyl)pyridin-3-yl)-6-(2,6-difluoro-4-(3-hydroxyoxetan-3-yl)phenyl)-5-fluoropicolinamide], in assay [1], the EC50 stood at 4 nM. Further, the IC50 in assay [2] is 0.01 nM; in assay [3], 0.73 nM; in assay [4], 0.13 nM.

`C[C@@H]1C[C@H](N)C[C@H](c2ccncc2NC(=O)c2ccc(F)c(-c3c(F)cc4c(c3F)OCC[C@@]4(C)O)n2)C1` [Example 240, N-(4-((1R,3S,5S)-3-amino-5-methylcyclohexyl)pyridin-3-yl)-6-((R)-6,8-difluoro-4-hydroxy-4-methylchroman-7-yl)-5-fluoropicolinamide] returned an EC50 in assay [1] of 23 nM. Further, the values for the half-maximal inhibitory concentration (IC50) in assay [2], in assay [3] and in assay [4] were 0.02 nM, 1.67 nM and 0.43 nM, respectively.
